Reference: patent US20260007730A1, “HUMAN CTLA-4 PEPTIDE VACCINES AND USES THEREOF” (Ohio State Innovation Foundation, priority 2022, published 2026)
Where no end group is shown, it is not given here. [ ]: non-standard residue; d: D form.

Columns and labels:
Type in all cases: in vivo, BALB/c mice
D2F2 mammary tumor cells = test: CTLA-4 peptide vaccines in D2F2-BALB/c tumor model; settings: for survival versus PBS group (Log-rank test): D2F2
Procedure: (§1) 6-8 weeks old BALB/c mice were vaccinated with MVF-CTLA-4 (59), MVF-CTLA-4 (75), MVF-CTLA-4 (92) or MVF-CTLA-4 (130) for 3 weeks interval. 0.1 mg peptide cancer vaccine mixed with ISA 720 (1:1) used per mouse (FIG. 5A). Mice were boosted with the designed doses for every 3 weeks intervals. Blood was collected weekly for monitoring antibody titers. After 2 weeks of the third time immunization (3Y), mice were challenged with 2×10^5 per mouse D2F2 mammary tumor cells.
After tumor challenge, the positive control group, we treat the mice with anti-mouse CTLA-4 antibody (clone 9H10) twice a week for up to three weeks, and the negative control group was treated with PBS. Tumor volume was calculated as: Tumor volume (LWW)=(Length×Width×Width)/2.
(§2) Mice challenged with tumor cells were monitored at least twice per week and tumor sizes were measured by calipers. Formula: Volume (LWW)=(Length×Width×Width)/2 was used to calculate tumor volumes. […] Data statistical analysis was performed by GraphPad Prism 8.1.2 (GraphPad Software, Inc. San Diego, CA, USA) and the indicated statistical analysis. One-way analysis of variance (one-way ANOVA) and followed by the Tukey's multiple comparisons test were used to compare data in multiple groups or data between groups in multiple groups. And the two-way ANOVA was used to analysis the whole curves comparison. The Log-rank (Mantel-Cox) test was use to compare the survival curves. P value or adjusted p value less than 0.05 was accepted as statistically significant different.

4T1 breast cancer cells = test: CTLA-4 peptide vaccines in 4T1-BALB/c tumor model; settings: for survival versus PBS group (Log-rank test): 4T1
Procedure: as §1, with “mouse.” for “mouse (FIG. 5A).”, “10^5” for “2×10^5”, “4T1 (FIG. 4A). After” for “D2F2 mammary”, “challenge, the positive control group, we treat the mice with anti-mouse CTLA-4 antibody (clone 9H10) twice a week for up to three weeks, and the negative control group was treated with PBS. Tumor volume was calculated as: Tumor volume (LWW)=(Length×Width×Width)/2” for “cells.”
as §2

CT26 colon carcinoma = test: CTLA-4 peptide vaccines in CT26-BALB/c tumor model
Procedure: 6-8 weeks old BALB/c mice were vaccinated with MVF-CTLA-4 (59), MVF-CTLA-4 (75), MVF-CTLA-4 (92) or MVF-CTLA-4 (130) for 3 weeks interval. 0.1 mg peptide cancer vaccine mixed with ISA 720 (1:1) used per mouse. Mice were boosted with the designed doses for every 3 weeks intervals. Blood was collected weekly for monitoring antibody titers.
After 2 weeks of the third time immunization (3Y), mice were challenged with 10^5 per mouse CT26 (FIG. 3A). After tumor challenge, the positive control group, we treat the mice with anti-mouse CTLA-4 antibody (clone 9H10) twice a week for up to three weeks, and the negative control group was treated with PBS. Tumor volume was calculated as: Tumor volume (LWW)=(Length×Width×Width)/2. Mean value of tumor growths in BALB/c mice were vaccinated with MVF-CTLA-4 (59), MVF-CTLA-4 (75), MVF-CTLA-4 (92) or MVF-CTLA-4 (130), PBS as negative control and anti-mouse CTLA-4 antibody (clone 9H10) as positive control. […] Individual mouse CT26 tumor growths in each group of mice were vaccinated with MVF-CTLA-4 (59), MVF-CTLA-4 (75), MVF-CTLA-4 (92) or MVF-CTLA-4 (130), PBS as negative control and anti-mouse CTLA-4 antibody (clone 9H10) as positive control (FIG. 3C).
as §2

CT26 tumor cells = test: CTLA-4 peptide mimics in CT26-BALB/c tumor model (V32); settings: CT26, 200 ug peptide mimic from day 1, Day 14
Procedure: 6-8 weeks old BALB/c mice were challenged with 1×10^5 per mouse CT26 tumor cells (FIG. 6A). After tumor challenge, the positive control group, we treat the mice with anti-mouse CTLA-4 antibody (clone 9H10) twice a week, start from day 1 post tumor challenge and the negative control group was treated with PBS. For the CTLA-4 peptide mimic treatment groups, mice were treated with 200 ug peptide mimics as indicated start from day 1 post tumor challenging. All the mice had been treated at day 1, day 2, day 5, day 7, day 9, day 12, day 14, and day 16 post tumor challenge. The immunogenicity (antibody titer) was under detectable. Tumor volume was calculated as: Tumor volume (LWW)=(Length×Width×Width)/2
as §2, with “P value or adjusted p value less than 0.05 was accepted as statistically significant different.” left out

KLLSLIKGVIVHRLEGVEGPSLRQADSQVTEVCAATYMMG-CONH2 (KLLSLIKGVIVHRLEGVEGPSLRQADSQVTEVCAATYMMG-NH2; not fully specified; printed as KLLSLIKGVIVHRLEGVEGPSLRQADSQVTEVCAATYMMG-CONH2) [MVF-CTLA-4 (75)]
tumor volume LWW versus PBS group (D2F2 mammary tumor cells; D2F2, day 14): significantly smaller tumor size
tumor volume LWW versus PBS group (D2F2 mammary tumor cells; D2F2, day 16): significantly smaller tumor size
tumor volume LWW versus PBS group (D2F2 mammary tumor cells; D2F2, day 19): significantly smaller tumor size
tumor volume LWW versus PBS group (D2F2 mammary tumor cells; D2F2, day 21): significantly smaller tumor size
survival versus PBS group (Log-rank test) (4T1 breast cancer cells): significant longer survival
tumor volume LWW versus PBS group (4T1 breast cancer cells; 4T1, day 14): significant smaller tumor size
tumor volume LWW versus PBS group (4T1 breast cancer cells; 4T1, day 14, listed as CTLA-4 (75)): significantly smaller tumor size
tumor volume LWW versus PBS group (4T1 breast cancer cells; 4T1, day 16): significant smaller tumor size
tumor volume LWW versus PBS group (4T1 breast cancer cells; 4T1, day 16, listed as CTLA-4 (75)): significantly smaller tumor size

KLLSLIKGVIVHRLEGVEGPSLEYASPGKATEVRVTVLRQA-CONH2 (KLLSLIKGVIVHRLEGVEGPSLEYASPGKATEVRVTVLRQA-NH2; not fully specified; printed as KLLSLIKGVIVHRLEGVEGPSLEYASPGKATEVRVTVLRQA-CONH2) [MVF-CTLA-4 (59)]
survival versus PBS group (Log-rank test) (D2F2 mammary tumor cells): significant different longer survival
tumor volume LWW versus PBS group (D2F2 mammary tumor cells; D2F2, day 14): significantly smaller tumor size
tumor volume LWW versus PBS group (D2F2 mammary tumor cells; D2F2, day 16): significantly smaller tumor size
tumor volume LWW versus PBS group (D2F2 mammary tumor cells; D2F2, day 19): significantly smaller tumor size
tumor volume LWW versus PBS group (D2F2 mammary tumor cells; D2F2, day 21): significantly smaller tumor size
survival versus PBS group (Log-rank test) (4T1 breast cancer cells): significant longer survival
tumor volume LWW versus PBS group (4T1 breast cancer cells; 4T1, day 14): significant smaller tumor size
tumor volume LWW versus PBS group (4T1 breast cancer cells; 4T1, day 14, listed as CTLA-4 (59)): significantly smaller tumor size
tumor volume LWW versus PBS group (4T1 breast cancer cells; 4T1, day 16): significant smaller tumor size
tumor volume LWW versus PBS group (4T1 breast cancer cells; 4T1, day 16, listed as CTLA-4 (59)): significantly smaller tumor size
tumor volume LWW versus PBS group (CT26 colon carcinoma; CT26, day 14): significant smaller tumor size
tumor volume LWW versus PBS group (CT26 colon carcinoma; CT26, day 14, listed as CTLA-4 (59)): significantly smaller tumor size
tumor volume LWW versus PBS group (CT26 colon carcinoma; CT26, day 16): significant smaller tumor size
tumor volume LWW versus PBS group (CT26 colon carcinoma; CT26, day 16, listed as CTLA-4 (59)): significantly smaller tumor size

KLLSLIKGVIVHRLEGVE-GPSL-KVELMYPPPYYLGIGNGTQIY-CONH2 (KLLSLIKGVIVHRLEGVEGPSLKVELMYPPPYYLGIGNGTQIY-NH2; not fully specified; printed as KLLSLIKGVIVHRLEGVE-GPSL-KVELMYPPPYYLGIGNGTQIY-CONH2) [MVF-CTLA-4 (130)]
survival versus PBS group (Log-rank test) (D2F2 mammary tumor cells): significant different longer survival
tumor volume LWW versus PBS group (D2F2 mammary tumor cells; D2F2, day 14): significantly smaller tumor size
tumor volume LWW versus PBS group (D2F2 mammary tumor cells; D2F2, day 16): significantly smaller tumor size
tumor volume LWW versus PBS group (D2F2 mammary tumor cells; D2F2, day 19): significantly smaller tumor size
tumor volume LWW versus PBS group (D2F2 mammary tumor cells; D2F2, day 21): significantly smaller tumor size
tumor volume LWW versus PBS group (4T1 breast cancer cells; 4T1, day 14): significant smaller tumor size
tumor volume LWW versus PBS group (4T1 breast cancer cells; 4T1, day 14, listed as CTLA-4 (130)): significantly smaller tumor size
tumor volume LWW versus PBS group (CT26 colon carcinoma; CT26, day 14): significant smaller tumor size
tumor volume LWW versus PBS group (CT26 colon carcinoma; CT26, day 14, listed as CTLA-4 (130)): significantly smaller tumor size
tumor volume LWW versus PBS group (CT26 colon carcinoma; CT26, day 16): significant smaller tumor size
tumor volume LWW versus PBS group (CT26 colon carcinoma; CT26, day 16, listed as CTLA-4 (130)): significantly smaller tumor size

H2N-YIQTGNGIGLYYPPPYMLEVK-CONH2 (H-[dY][dI][dQ][dT]G[dN]G[dI]G[dL][dY][dY][dP][dP][dP][dY][dM][dL][dE][dV][dK]-NH2; also: retro-inverso) [CTLA-4 (9) RIL (150-130)]
tumor volume, between groups comparison vs PBS (p or words) (CT26 tumor cells): < 0.05

B1: KLLSLIKGVIVHRLEGVEGPSLGNELTFLDDSICTGTSSGNQVNFHMSVVRARRNDSGTYL-CONH2 (peptide)
chain: KLLSLIKGVIVHRLEGVEGPSLGNELTFLDDSICTGTSSGNQVNFHMSVVRARRNDSGTYL-NH2
modifications: not fully specified; printed as KLLSLIKGVIVHRLEGVEGPSLGNELTFLDDSICTGTSSGNQVNFHMSVVRARRNDSGTYL-CONH2
tumor volume LWW versus PBS group (D2F2 mammary tumor cells; D2F2, day 14): without difference
tumor volume LWW versus PBS group (D2F2 mammary tumor cells; D2F2, day 16): significantly smaller tumor size
tumor volume LWW versus PBS group (D2F2 mammary tumor cells; D2F2, day 19): significantly smaller tumor size
tumor volume LWW versus PBS group (D2F2 mammary tumor cells; D2F2, day 21): significantly smaller tumor size
tumor volume LWW versus PBS group (4T1 breast cancer cells; 4T1, day 16): significant smaller tumor size
tumor volume LWW versus PBS group (4T1 breast cancer cells; 4T1, day 16, listed as CTLA-4 (92)): significantly smaller tumor size
tumor volume LWW versus PBS group (CT26 colon carcinoma; CT26, day 14): significant smaller tumor size
tumor volume LWW versus PBS group (CT26 colon carcinoma; CT26, day 14, listed as CTLA-4 (92)): significantly smaller tumor size
tumor volume LWW versus PBS group (CT26 colon carcinoma; CT26, day 16): significant smaller tumor size
tumor volume LWW versus PBS group (CT26 colon carcinoma; CT26, day 16, listed as CTLA-4 (92)): significantly smaller tumor size
